Measured values: patent US7977045B2, “Aqueous-based pharmaceutical composition” (Aventis Pharmaceuticals Inc., priority 1996, dated 2011)

Assay: Positron emission tomography of nasal deposition and retention of TAA after spraying the composition
Type: in vivo, human
Protocol: A dose of the composition can be delivered to a human patient by spraying the composition into each of the patient's nasal cavities. For dose delivery, the pre-compression metering pump (Valois VP7/100S) is placed in a patient's nostril and is then actuated by the patient, resulting in a spray into the nasal cavity. After initial priming, each actuation of the pump delivers from the nasal actuator about 100 mg of composition containing about 55 mcg of TAA. Each bottle of composition will provide at least about 120 metered doses. For the exemplified compositions, the recommended once-daily dosing for adults and children 12 years and older begins at about 220 mcgs of TAA, equivalent to two sprays in each nostril.
A composition comprising the formulation of Examples 1 and 2 was administered to two volunteer patients. Post administration, the patients were evaluated by positron emission tomography in order to determine 1) the amount of time it took for the maximum dose of the TAA medicament to be delivered to various regions of interest within the nasal cavity, and 2) the amount of TAA medicament deposited on the regions of interest over a two hour time period. For purposes of the evaluation, the volume of the head region was segmented into 104 distinct regions of interest. […] The results of evaluation indicate a rapid distribution of the TAA medicament to the target regions of the nose.
The evaluation included also a determination of the percentage of the TAA medicament remaining on the target sites two hours after the it was administered to each of the patients. This percentage was determined by dividing the amount remaining in each region of interest by the total amount remaining in the 104 regions of interest.

[1] = first volunteer, at maximum concha contact
[2] = first volunteer, over a two-hour period
[3] = first volunteer, two hours post administration, share of total remaining in 104 regions
[4] = other (second) volunteer, post dose
[5] = second volunteer, two hours post administration

## CC1(C)O[C@@H]2C[C@H]3[C@@H]4CCC5=CC(=O)C=C[C@]5(C)[C@@]4(F)[C@@H](O)C[C@]3(C)[C@]2(C(=O)CO)O1 [TAA, triamcinolone acetonide]
Both volunteers, amount in region divided by total amount remaining in the 104 regions of interest, two hours
  dose directly deposited on the target sites (frontal cavity, frontal sinus, maxillary sinuses, superior and inferior concha): greater than 85%
First volunteer
  maximum amount of TAA medicament in contact with the frontal cavity region: about 41%
  maximum amount of the dose deposited into the frontal sinus: approximately 3.5%
  maximum amount of the dose deposited into the maxillary sinuses: ~3.9%
  time to clearance of TAA medicament from the frontal sinus: ≤ 1 h
[1]
  amount of total dose in contact with the inferior concha: About 46%
  amount of total dose in contact with the superior concha: about 19%
First volunteer, final time period
  amount of total dose remaining in the concha tissues (constant value): 3.4-4%
First volunteer, intranasal spray of formulation of Examples 1 and 2, PET
  maximum amount of TAA medicament in contact with the concha regions, % of total dose delivered to the nose: about 65%
[2]
  dose deposited in the maxillary sinus region: about 3%
  dose deposited on the frontal sinus: about 1.2%
First volunteer, post dose
  time of maximum amount in contact with the concha regions: about 45 seconds
  time of maximum amount in contact with the frontal cavity region: about 45 seconds
  time of maximum deposit in the frontal and maxillary sinuses: ≤ 30 s
First volunteer, two hour acquisition sampling time
  medicament still present in the maxillary sinuses: approximately 1%
First volunteer, two hours after administration, share of total remaining in 104 regions
  total TAA medicament remaining deposited in the frontal cavity: about 47.9%
First volunteer, two hours post administration
  amount remaining in the concha region (inferior plus superior): about 36.4%
[3]
  total medicament deposited in the inferior concha region: about 27.8%
  total medicament deposited in the superior concha region: about 8.6%
First volunteer, two hours post-dose
  amount in the frontal cavity region (constant level): about 12%
First volunteer, two-hour serial sampling period
  sum of percentages remaining on the target sites (dose deposited directly onto target tissues): about 88.5%
Other (second) volunteer
  maximum amount deposited in the frontal sinus: around 3.5%
  maximum amount deposited in the maxillary sinus: about 2%
  maximum amount of TAA medicament in contact with the frontal cavity, % of total dose delivered to the nose: about 55%
  part of the maximum concha amount associated with the inferior concha: about 75%
  part of the maximum concha amount associated with the superior concha: about 25%
Other (second) volunteer, about two hours post-administration
  administered dose still in contact with the concha regions: 6-8%
Other (second) volunteer, after two hours
  dose still resident in the frontal/nasal cavity: approximately 22%
Other (second) volunteer, intranasal spray of formulation of Examples 1 and 2, PET
  maximum amount of the drug in contact with the concha regions, % of total dose delivered to the nose: about 53%
[4]
  time of maximum amount in contact with the frontal cavity: ≤ 30 s
  time of maximum amount in contact with the inferior concha region: about 3.5 minutes
  time of maximum amount in contact with the superior concha region: about 25 seconds
  time of maximum deposit in the maxillary and frontal sinuses: ≤ 30 s
Second volunteer, two hour serial sampling period
  sum of percentages remaining on the target sites (dose deposited directly onto target tissues): about 85.6%
[5]
  dose in the frontal sinus: about 1.6%
  dose in the maxillary sinus: about 1.4%
  dose remaining deposited on the inferior concha: About 23.5%
  dose remaining deposited on the superior concha: about 6.9%
  total percentage of the dose remaining deposited on the concha region: about 30.4%
Second volunteer, two hours post-drug administration, share of total remaining in 104 regions
  dose remaining deposited in the frontal cavity: about 52.2%
